compound: Cn1cnc2c(F)c(Nc3ccc(Br)cc3Cl)c(C(=O)NOCCO)cc21 [Selumetinib] + CC(=O)Nc1cccc(-n2c(=O)n(C3CC3)c(=O)c3c(Nc4ccc(I)cc4F)n(C)c(=O)c(C)c32)c1 [Trametinib] (partner 0.02 µM); assay: relative viability (nuclei count vs DMSO), 5 days (fraction); higher = more cells survive; details: first compound 0.02 µM
Method in brief: (§1)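 A single step with final 0.05% Triton X-100, 1% formaldehyde and 1 ug/ml Hoechst fixed the cells and stained nuclei 5 days after treatment. Lung cancer cell lines in 1536-well plates had been treated by pin tool the day after seeding with one drug alone or a fixed anchor-drug dose plus five library-drug doses (not always all listed) in √10 steps, and nuclei were counted on 4× images. Relative viability is the ratio of nuclei in treated wells to nuclei in vehicle wells, taken as the median of duplicate plates.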

Row | Cell Line | relative viability
1 | NCI-H522 | 0.859
2 | PC-14 | 0.847
3 | NCI-H1666 | 0.867
4 | NCI-H1755 | 0.78
5 | NCI-H2023 | 0.51
6 | EPLC-272H | 0.275
7 | LCLC-97TM1 | 0.195
8 | PC-3 [JPC-3] | 0.65
9 | LOU-NH91 | 0.773
10 | NCI-H647 | 0.478
11 | NCI-H23 | 0.4
12 | EMC-BAC-2 | 0.909
13 | NCI-H2126 | 0.569
14 | HCC-44 | 1.03
15 | NCI-H1734 | 0.708
16 | NCI-H650 | 0.963
17 | LK-2 | 0.834
18 | NCI-H2228 | 0.513

Row | Cell Line | relative viability
19 | NCI-H2342 | 0.838
20 | SK-MES-1 | 0.561
21 | HARA | 0.531
22 | COR-L23 | 0.555
23 | COR-L 105 | 0.435
24 | LC-2-ad | 0.954
25 | LXF-289 | 0.717
26 | ChaGo-K-1 | 0.908
27 | NCI-H2170 | 0.934
28 | NCI-H322M | 0.458
29 | HCC-78 | 0.785
30 | SW 900 | 0.68
31 | BEN | 1.06
32 | HCC-15 | 0.403
33 | HCC-827 | 0.528
34 | NCI-H1650 | 0.522
35 | HCC-366 | 0.365

same assay, conditions: first compound 0.06325 µM

Row | Cell Line | relative viability
36 | NCI-H522 | 0.727
37 | PC-14 | 0.74
38 | NCI-H1666 | 0.854
39 | NCI-H1755 | 0.753
40 | NCI-H2023 | 0.467
41 | EPLC-272H | 0.277
42 | LCLC-97TM1 | 0.171
43 | PC-3 [JPC-3] | 0.641
44 | LOU-NH91 | 0.761
45 | NCI-H647 | 0.391
46 | NCI-H23 | 0.402
47 | EMC-BAC-2 | 0.833
48 | NCI-H2126 | 0.574
49 | HCC-44 | 0.993
50 | NCI-H1734 | 0.73
51 | NCI-H650 | 1.03
52 | LK-2 | 0.753
53 | NCI-H2228 | 0.328

Row | Cell Line | relative viability
54 | NCI-H2342 | 0.835
55 | SK-MES-1 | 0.579
56 | HARA | 0.596
57 | COR-L23 | 0.469
58 | COR-L 105 | 0.427
59 | LC-2-ad | 0.88
60 | LXF-289 | 0.616
61 | ChaGo-K-1 | 0.891
62 | NCI-H2170 | 0.957
63 | NCI-H322M | 0.508
64 | HCC-78 | 0.643
65 | SW 900 | 0.764
66 | BEN | 1.07
67 | HCC-15 | 0.426
68 | NCI-H1648 | 0.503
69 | HCC-827 | 0.554
70 | NCI-H1650 | 0.458
71 | HCC-366 | 0.316

same assay, conditions: first compound 0.2 µM

Row | Cell Line | relative viability
72 | NCI-H522 | 0.757
73 | PC-14 | 0.732
74 | NCI-H1666 | 0.807
75 | NCI-H1755 | 0.778
76 | NCI-H2023 | 0.535
77 | EPLC-272H | 0.263
78 | LCLC-97TM1 | 0.201
79 | PC-3 [JPC-3] | 0.685
80 | LOU-NH91 | 0.818
81 | NCI-H647 | 0.405
82 | NCI-H23 | 0.322
83 | EMC-BAC-2 | 0.937
84 | NCI-H2126 | 0.6
85 | HCC-44 | 0.999
86 | NCI-H1734 | 0.707
87 | NCI-H650 | 0.979
88 | LK-2 | 0.844
89 | NCI-H2228 | 0.554

Row | Cell Line | relative viability
90 | NCI-H2342 | 0.789
91 | SK-MES-1 | 0.476
92 | HARA | 0.787
93 | COR-L23 | 0.586
94 | COR-L 105 | 0.345
95 | LC-2-ad | 0.822
96 | LXF-289 | 0.673
97 | ChaGo-K-1 | 0.897
98 | NCI-H2170 | 0.853
99 | NCI-H322M | 0.496
100 | HCC-78 | 0.792
101 | SW 900 | 0.875
102 | BEN | 1.14
103 | HCC-15 | 0.332
104 | NCI-H1648 | 0.443
105 | HCC-827 | 0.541
106 | NCI-H1650 | 0.531
107 | HCC-366 | 0.332

same assay, conditions: first compound 0.6325 µM

Row | Cell Line | relative viability
108 | NCI-H522 | 0.888
109 | PC-14 | 0.604
110 | NCI-H1666 | 0.845
111 | NCI-H1755 | 0.752
112 | NCI-H2023 | 0.51
113 | EPLC-272H | 0.259
114 | LCLC-97TM1 | 0.19
115 | PC-3 [JPC-3] | 0.656
116 | LOU-NH91 | 0.824
117 | NCI-H647 | 0.484
118 | NCI-H23 | 0.331
119 | EMC-BAC-2 | 0.774
120 | NCI-H2126 | 0.622
121 | HCC-44 | 1.14
122 | NCI-H1734 | 0.723
123 | NCI-H650 | 0.866
124 | LK-2 | 0.69
125 | NCI-H2228 | 0.393

Row | Cell Line | relative viability
126 | NCI-H2342 | 0.975
127 | SK-MES-1 | 0.461
128 | HARA | 0.448
129 | COR-L23 | 0.511
130 | COR-L 105 | 0.468
131 | LC-2-ad | 0.9
132 | LXF-289 | 0.701
133 | ChaGo-K-1 | 0.92
134 | NCI-H2170 | 0.921
135 | NCI-H322M | 0.512
136 | HCC-78 | 0.698
137 | SW 900 | 0.675
138 | BEN | 1
139 | HCC-15 | 0.333
140 | NCI-H1648 | 0.499
141 | HCC-827 | 0.549
142 | NCI-H1650 | 0.577
143 | HCC-366 | 0.329

compound: Cn1cnc2c(F)c(Nc3ccc(Br)cc3Cl)c(C(=O)NOCCO)cc21 [Selumetinib] + CCNC(=O)c1noc(-c2cc(C(C)C)c(O)cc2O)c1-c1ccc(CN2CCOCC2)cc1 [Luminespib] (partner 0.01 µM); assay: as above; details: first compound 0.02 µM
Method in brief: as §1

Row | Cell Line | relative viability
144 | NCI-H522 | 1.1
145 | NCI-H1623 | 0.41
146 | PC-14 | 0.147
147 | NCI-H1666 | 0.996
148 | NCI-H1755 | 0.715
149 | NCI-H2023 | 0.947
150 | EPLC-272H | 0.22
151 | LCLC-97TM1 | 0.79
152 | PC-3 [JPC-3] | 0.721
153 | LOU-NH91 | 0.381
154 | NCI-H647 | 0.195
155 | NCI-H23 | 0.24
